According to publication PMC8234462, “Novel Cyclophilin Inhibitor Decreases Cell Proliferation and Tumor Growth in Models of Hepatocellular Carcinoma” (Cancers, 2021):
pIC50: −log10 of the molar value.

Tests used:
[1] = tested on: Huh-7D12; experiment: Clonogenic assay; assay type: cell-based, human; conditions: continuously treated 14 days, crystal violet
Description: (§1) Cells were seeded at 2500/mL and, starting 24 h later, provided with fresh medium and NV651 every day for the following 14 days. Then, colonies were stained with crystal violet, which was subsequently dissolved in 10% acetic acid and quantified by a spectrophotometer by absorbance at 595 nm.

[2] = tested on: PLC/PRF/5; experiment: Clonogenic assay; assay type: cell-based, human; conditions: continuously treated 14 days, crystal violet
Description: as §1

[3] = tested on: HEPG2; experiment: Clonogenic assay; assay type: cell-based, human; conditions: continuously treated 14 days, crystal violet
Description: as §1

[4] = tested on: Hep3B; experiment: Clonogenic assay; assay type: cell-based, human; conditions: continuously treated 14 days, crystal violet
Description: as §1

[5] = tested on: Luc+ HEPG2 xenograft; experiment: In vivo efficacy, xenograft tumor growth; set-up: species or system NMRI nude mice; conditions: 10 mg/kg daily subcutaneous
Description: Twenty-five percent buffered Hydroxy Propyl beta Cyclodextrin (HPbCD) was prepared from Hydroxy Propyl beta Cyclodextrin (Roquette, Lestrem, France), EDTA solution and phosphate buffer at a pH of 7.4, filtered with a […] (VWR, Cat# 28145-483, Radnor, PA, USA) and stored at 4 °C. NV651 was prepared at a concentration of 10 mg/kg with 25% buffered HPbCD (vehicle). NV651 solution was sonicated for 30 min in a water bath sonicator (Bioruptor, Diagenode, Denville, NJ, USA) and shaken for up to an hour, followed by a secondary sterilization with a 0.2-µm filter. NV651 solution was stored at 4 °C up to 2 weeks, with stability confirmed up to 3 weeks.
HEPG2 cells were transduced with RediFect Red-FLuc-GFP (Perkin Elmer, Cat# CLS960003, Waltham, MA, USA) with a MOI = 3 and sorted for GFP^+ in a FACSAria III (BD Biosciences, Franklin Lakes, NJ, USA). […] Cell viability and a percentage of the GFP^+ cells were analyzed before the start of the in vivo experiment with a BD FACSverse cytometer (BD Biosciences, Franklin Lakes, NJ, USA). […]
Tumor growth was assessed with an in vivo imaging system (IVIS) one week after the injection of the cells. […] Body weights were measured at time 0 of the treatment and twice a week after the beginning of the treatment. […] Tumor growth was analyzed for up to 3 weeks. […]

[6] = tested on: RPTECs; experiment: Cytotoxicity, CellTiter Glo; assay type: cell-based, human; conditions: Homo sapiens, RPTEC, 72 h, 3 days of treatment, read-out: IC50 (50% reduction in cell viability)
Description: The evaluation of the off-target effects of NV651 was performed by ImQuest BioSciences Inc. (Frederick, MD, USA) by analyzing the cytotoxicity in a panel of primary cells. NV651 was evaluated at a concentration of 30 µM and five serial half-logarithmic dilutions in triplicate. The positive control compounds for each cell type were purchased from Sigma-Aldrich (St. Louis, MO, USA) and were as follows: Unstimulated human peripheral blood mononuclear cells (PBMCs), phytohemagglutinin (PHA)-stimulated PBMCs, monocytes/macrophages, dendritic cells, hepatocytes, induced pluripotent stem cell (iPS) neurons: […] AZT, kidney cells (RPTEC): cisplatin and iPS cardiomyocytes: Doxazosin. Human primary renal proximal tubule cells (hRPTEC, Lonza, Basel, Switzerland) were cultured at 1 × 10^4 cells/well in supplemented REGM medium (Lonza, Basel, Switzerland). Following overnight incubation for adherence, cells were treated with NV651 in triplicate. After a 3-day treatment, CellTiter Glo (Promega, Madison, WI, USA) was used. CellTiter Glo was performed to evaluate cell viability. CellTiter Glo Luminescent Cell Viability Assay (Promega, Madison, WI, USA) was performed according to the manufacturer’s instructions.

[7] = tested on: iPS neurons; experiment: Cytotoxicity, CellTiter Glo; assay type: cell-based; conditions: Homo sapiens, Neuron, 72 h, 3 days of treatment, read-out: IC50 (50% reduction in cell viability)
Description: (§2) The evaluation of the off-target effects of NV651 was performed by ImQuest BioSciences Inc. (Frederick, MD, USA) by analyzing the cytotoxicity in a panel of primary cells. NV651 was evaluated at a concentration of 30 µM and five serial half-logarithmic dilutions in triplicate. The positive control compounds for each cell type were purchased from Sigma-Aldrich (St. Louis, MO, USA) and were as follows:
(§3) CellTiter Glo was performed to evaluate cell viability. CellTiter Glo Luminescent Cell Viability Assay (Promega, Madison, WI, USA) was performed according to the manufacturer’s instructions.

[8] = tested on: Monocytes/Macrophages; experiment: Cytotoxicity, CellTiter Glo; assay type: cell-based; conditions: Homo sapiens, 168 h, 7 days of treatment, read-out: IC50 (50% reduction in cell viability)
Description: as §2, §3

[9] = tested on: Hepatocytes; experiment: Cytotoxicity, CellTiter Glo; assay type: cell-based; conditions: Homo sapiens, Hepatocyte, 48 h, 2 days of treatment, read-out: IC50 (50% reduction in cell viability)
Description: as §2, §3

[10] = tested on: HEPG2; experiment: Cell cycle analysis (PI DNA content); assay type: cell-based, human
Description: (§4) For the quantification of the DNA content, cells were treated with DMSO or 100 nM of NV651. Samples were collected at 24, 48, 72 and 96 h, followed by fixation with 70% (v/v) ethanol. DNA was stained with 50-µg/mL PI. Due to the capacity of PI to stain any type of nucleotide, RNase (100 µg/mL) (Sigma-Aldrich, Cat# R4875-100MG, St. Louis, MO, USA) was also added. To quantify the apoptotic cell fraction, we measured the subG1 fraction in the cell cycle.
(§5) Data was acquired with FACSverse Instrument and analyzed with FCS Express 6 Flow Research.

[11] = tested on: HUH7; experiment: Cell cycle analysis (PI DNA content); assay type: cell-based, human
Description: as §4, §5

CC(=O)CCC1C(=O)NC(C(C)C)C(=O)NC(Cc2cc(O)cc(F)c2)C(=O)N2CCCC(N2)C(=O)OC(C(C)=CC=CC(=O)OC(C)(C)C)CC=CC=CC(O)C(C)C1O (stereo not shown) [NV651]
number of colonies [1]: reduced the number of colonies | number of colonies [2]: reduced the number of colonies | number of colonies [3]: reduced the number of colonies | number of colonies [4]: reduced the number of colonies | luminescence signal (tumor growth, IVIS) vs vehicle ([5]; after 3 weeks of treatment): significantly reduced | tumor growth by caliper measurements vs vehicle ([5]; up to 3 weeks): reduced tumor growth | pIC50 [6]: 4.68 | pIC50 [7]: < 4.52 | pIC50 [8]: 4.61 | pIC50 [9]: < 4.52 | cell size (FSC-A) ([10]; 100 nM NV651): increased trend in the cell size | cell cycle distribution (DNA content) ([10]; 100 nM NV651, after 48–72 h): block in the G2/M phase | subG1 fraction (apoptotic cells) ([10]; 100 nM NV651 up to 96 h): statistically significant increase in cell death | cell size (FSC-A) ([11]; 100 nM NV651): increased trend in the cell size | cell cycle distribution (DNA content) ([11]; 100 nM NV651, after 48–72 h): block in the G2/M phase | subG1 fraction (apoptotic cells) ([11]; 100 nM NV651 up to 96 h): statistically significant increase in cell death
